Assay results reported in patent publication US20060211684A1, “Use of alpha-2 adrenergic receptor agonists” (Perlegen Sciences, Inc., priority 2005, published 2006).
Where two headings read alike, the source gives them in different places.

Assays:
[1] = cited from earlier work
[2] = system: transverse aortic constricted α2C−/−mice
Method: This example tests whether treatment of α2C−/−knockout transgenic mice with the partial α2A agonist, clonidine, improves cardiac function and reduces ventricular hypertrophy after left ventricular pressure overload. In other words, the example tests whether clonidine-mediated activation of α2A-receptors compensates for the loss of functional α2C. The mice used in this experiment are described in more detail in Brede et al., Circulation 106, 2491-2496 (2002). […] Mice were treated with 200 μg/kg/day clonidine or vehicle for four weeks. Three mice were treated with clonidine and three with vehicle in the initial experiment.

[3] = after ingestion; cited from earlier work
[4] = cited from earlier work; remark: listed apart in the source
[5] = initial experiment, 200 μg/kg/day for four weeks, three mice clonidine, three vehicle, FIG. 1
[6] = second experiment, 200 μg/kg/day for 4 weeks via osmotic minipumps, n=5 clonidine, n=6 vehicle

Clc1cccc(Cl)c1NC1=NCCN1 [clonidine, N-(2,6-dichlorophenyl)-4,5-dihydro-1 H-imidazol-2-amine]
side effects ([1]; therapeutic doses typically used (0.2-0.9 mg/day)): dryness of the mouth, dizziness, sedation, and constipation
toxic effects ([1]; toxic doses, children and adults): serious cardiopulmonary instability and central nervous system depression
hypertrophy ([2]; FIGS. 1 and 2): prevents and reduces
left ventricular systolic pressures ([2]; FIGS. 1 and 2): slightly reduced
ventricular contractility ([2]; FIGS. 1 and 2): maintained
contractility of the heart [2, 5]: did not effect
left ventricular systolic pressure [2, 5]: reduced
ventricular hypertrophy [2, 5]: reduced
contractility of the heart [2, 6]: did not effect
left ventricular systolic pressure [2, 6]: reduced
ventricular hypertrophy [2, 6]: reduced
onset of antihypertensive effects [3]: 30 to 60 min
time to peak plasma concentrations ([4]; after a single oral dose): 3 to 5 h
CNS penetration ([4]; because of lipid solubility): excellent
time to steady state levels ([4]; dermal application): several days
absorption from the gastrointestinal tract ([4]; in vivo): rapidly absorbed
elimination ([4]; in vivo): excreted unchanged in the urine and metabolized by the liver
